Assay results as given in the supplement of paper PMC10883282.
± gives the standard deviation of the averaged measurements.

Test system: SYO-1
Assay: relative viability vs DMSO control (72 h) (fraction); higher = more viable cells
Method in brief: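 A 5 µM positive control and 0.1% DMSO vehicle ran alongside sarcoma cell lines seeded in 384-well plates to reach 80–90% confluence. Serially diluted compound, 2.5 µl from source plates of 10 mM to 0.0002 mM, was added after 24 h, and the plates were held 72 h at 37 °C, 5% CO2. Relative viability was worked out from ATPLite readings as percent growth averaged over up to triplicate wells. The values were rescaled so that 1 is full and 0 is none.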

Compound | relative viability (0.00017 µM) | relative viability (0.00051 µM) | relative viability (0.00152 µM) | relative viability (0.00457 µM) | relative viability (0.01372 µM) | relative viability (0.04115 µM) | relative viability (0.1235 µM) | relative viability (0.3704 µM) | relative viability (1.111 µM) | relative viability (3.333 µM) | relative viability (10 µM)
CO[C@H]1C[C@@H]2CC[C@@H](C)[C@@](O)(O2)C(=O)C(=O)N2CCCC[C@H]2C(=O)O[C@H]([C@H](C)C[C@@H]2CC[C@@H](OP(C)(C)=O)[C@H](OC)C2)CC(=O)[C@H](C)/C=C(\C)[C@@H](O)[C@@H](OC)C(=O)[C@H](C)C[C@H](C)/C=C/C=C/C=C/1C [Ridaforolimus] | 0.941 ± 0.022 | 0.924 ± 0.024 | 0.915 ± 0.026 | 0.89 ± 0.037 | 0.868 ± 0.035 | 0.832 ± 0.041 | 0.79 ± 0.042 | 0.775 ± 0.038 | 0.748 ± 0.056 | 0.707 ± 0.058 | 0.672 ± 0.062
O=C(Cc1ccc(-c2ccc(OCCN3CCOCC3)cc2)cn1)NCc1ccccc1 [KX2-391] | 1 ± 0.039 | 0.973 ± 0.038 | 0.958 ± 0.017 | 0.952 ± 0.042 | 0.917 ± 0.034 | 0.673 ± 0.027 | 0.295 ± 0.013 | 0.309 ± 0.011 | 0.324 ± 0.015 | 0.324 ± 0.011 | 0.357 ± 0.011
COc1cc2nccc(Oc3ccc(NC(=O)Nc4cc(C)on4)c(Cl)c3)c2cc1OC [Tivozanib] | 0.97 ± 0.049 | 0.952 ± 0.04 | 0.935 ± 0.051 | 0.941 ± 0.023 | 0.887 ± 0.051 | 0.796 ± 0.053 | 0.765 ± 0.02 | 0.706 ± 0.03 | 0.618 ± 0.065 | 0.523 ± 0.025 | 0.393 ± 0.027
CCc1cc2c(cc1N1CCC(N3CCOCC3)CC1)C(C)(C)c1[nH]c3cc(C#N)ccc3c1C2=O [Alectinib] | 0.979 ± 0.024 | 0.983 ± 0.032 | 0.982 ± 0.058 | 0.975 ± 0.059 | 0.99 ± 0.072 | 0.98 ± 0.031 | 0.972 ± 0.081 | 0.986 ± 0.051 | 1 ± 0.05 | 0.984 ± 0.045 | 1.03 ± 0.034
COCc1c(-c2cc3cc(C)cc(OC)c3s2)c2c(N)ncnn2c1CN1CCNC(=O)C1 [Rogaratinib] | 1.01 ± 0.048 | 0.974 ± 0.054 | 0.952 ± 0.059 | 0.924 ± 0.067 | 0.84 ± 0.059 | 0.765 ± 0.082 | 0.634 ± 0.05 | 0.613 ± 0.071 | 0.6 ± 0.057 | 0.568 ± 0.056 | 0.464 ± 0.06
CN1CCC(COc2cnc(-c3cccc(Cn4nc(-c5cccc(C#N)c5)ccc4=O)c3)nc2)CC1 [Tepotinib] | 1 ± 0.042 | 0.983 ± 0.042 | 0.974 ± 0.063 | 0.919 ± 0.061 | 0.946 ± 0.05 | 0.912 ± 0.038 | 0.916 ± 0.031 | 0.931 ± 0.06 | 0.884 ± 0.037 | 0.824 ± 0.033 | 0.608 ± 0.055
Cc1cnc(Nc2ccc(OCCN3CCCC3)cc2)nc1Nc1cccc(S(=O)(=O)NC(C)(C)C)c1 [Fedratinib] | 0.982 ± 0.04 | 0.943 ± 0.078 | 0.941 ± 0.09 | 0.933 ± 0.037 | 0.898 ± 0.053 | 0.843 ± 0.027 | 0.748 ± 0.066 | 0.496 ± 0.052 | 0.132 ± 0.0092 | -0.0159 ± 0.0034 | -0.0172 ± 0.0037
Cn1cnc2c(F)c(Nc3ccc(Br)cc3F)c(C(=O)NOCCO)cc21 [Binimetinib] | 1.04 ± 0.027 | 1.05 ± 0.02 | 1.01 ± 0.064 | 1.01 ± 0.038 | 0.983 ± 0.024 | 0.96 ± 0.042 | 0.936 ± 0.038 | 0.933 ± 0.019 | 0.93 ± 0.069 | 0.889 ± 0.042 | 0.86 ± 0.059
C[C@@H]1CCN(C(=O)CC#N)C[C@@H]1N(C)c1ncnc2[nH]ccc12 [Tofacitinib] | 1.01 ± 0.051 | 0.969 ± 0.061 | 0.966 ± 0.072 | 0.923 ± 0.024 | 0.887 ± 0.039 | 0.902 ± 0.062 | 0.916 ± 0.043 | 0.888 ± 0.02 | 0.891 ± 0.053 | 0.868 ± 0.032 | 0.766 ± 0.044
Nc1cc(C(F)(F)F)c(-c2cc(N3CCOCC3)nc(N3CCOCC3)n2)cn1 [Buparlisib] | 0.933 ± 0.025 | 0.939 ± 0.011 | 0.935 ± 0.028 | 0.931 ± 0.022 | 0.894 ± 0.043 | 0.878 ± 0.066 | 0.81 ± 0.075 | 0.739 ± 0.052 | 0.456 ± 0.0064 | 0.159 ± 0.0096 | 0.136 ± 0.005
Cn1cc(-c2cc3c(N4CCN(c5ncc([C@@](C)(N)c6ccc(F)cc6)cn5)CC4)ncnn3c2)cn1 [Avapritinib] | 0.92 ± 0.012 | 0.898 ± 0.031 | 0.882 ± 0.057 | 0.844 ± 0.087 | 0.807 ± 0.1 | 0.718 ± 0.054 | 0.629 ± 0.053 | 0.568 ± 0.03 | 0.534 ± 0.059 | 0.439 ± 0.039 | 0.319 ± 0.023
C=CC(=O)N1CCC([C@@H]2CCNc3c(C(N)=O)c(-c4ccc(Oc5ccccc5)cc4)nn32)CC1 [Zanubrutinib] | 0.982 ± 0.032 | 0.978 ± 0.025 | 0.976 ± 0.018 | 0.979 ± 0.018 | 0.984 ± 0.015 | 0.9556 ± 0.0067 | 0.967 ± 0.018 | 0.959 ± 0.06 | 0.97 ± 0.061 | 0.884 ± 0.076 | 0.763 ± 0.053
CCCS(=O)(=O)Nc1ccc(F)c(C(=O)c2c[nH]c3ncc(-c4ccc(Cl)cc4)cc23)c1F [Vemurafenib] | 0.954 ± 0.056 | 0.955 ± 0.048 | 0.963 ± 0.04 | 0.966 ± 0.061 | 0.975 ± 0.051 | 0.967 ± 0.043 | 0.974 ± 0.024 | 1 ± 0.027 | 0.986 ± 0.042 | 0.95 ± 0.076 | 0.608 ± 0.072
COc1cc2c(Oc3ccc4[nH]c(C)cc4c3F)ncnc2cc1OCCCN1CCCC1 [Cediranib] | 0.965 ± 0.02 | 0.962 ± 0.039 | 0.967 ± 0.04 | 0.946 ± 0.043 | 0.91 ± 0.074 | 0.723 ± 0.036 | 0.5301 ± 0.0011 | 0.471 ± 0.019 | 0.453 ± 0.019 | 0.483 ± 0.012 | 0.482 ± 0.027
CC[C@H](Nc1ncnc2[nH]cnc12)c1nc2cccc(F)c2c(=O)n1-c1ccccc1 [Idelalisib] | 1.01 ± 0.062 | 0.979 ± 0.029 | 1 ± 0.054 | 0.968 ± 0.068 | 0.972 ± 0.069 | 0.942 ± 0.028 | 0.941 ± 0.032 | 0.931 ± 0.068 | 0.911 ± 0.045 | 0.866 ± 0.067 | 0.799 ± 0.079
Cc1cc(Nc2ncnc3ccc(NC4=NC(C)(C)CO4)cc23)ccc1Oc1ccn2ncnc2c1 [Tucatinib] | 1.03 ± 0.024 | 1.04 ± 0.026 | 1.02 ± 0.015 | 1.01 ± 0.021 | 0.99 ± 0.027 | 0.981 ± 0.038 | 1.01 ± 0.022 | 0.97 ± 0.064 | 0.969 ± 0.019 | 0.959 ± 0.027 | 0.841 ± 0.041
N#CC[C@H](C1CCCC1)n1cc(-c2ncnc3[nH]ccc23)cn1 [Ruxolitinib] | 0.969 ± 0.039 | 0.975 ± 0.034 | 0.958 ± 0.035 | 0.945 ± 0.029 | 0.964 ± 0.026 | 0.969 ± 0.059 | 0.931 ± 0.043 | 0.941 ± 0.095 | 0.945 ± 0.048 | 0.892 ± 0.037 | 0.641 ± 0.014
Cc1ccc(F)c(NC(=O)Nc2ccc(-c3cccc4[nH]nc(N)c34)cc2)c1 [Linifanib] | 0.98 ± 0.036 | 0.968 ± 0.087 | 0.957 ± 0.066 | 0.941 ± 0.035 | 0.906 ± 0.049 | 0.845 ± 0.085 | 0.76 ± 0.13 | 0.751 ± 0.093 | 0.769 ± 0.016 | 0.753 ± 0.055 | 0.711 ± 0.031
Cc1nc(NC(=O)N2CCC[C@H]2C(N)=O)sc1-c1ccnc(C(C)(C)C(F)(F)F)c1 [Alpelisib] | 0.975 ± 0.071 | 0.944 ± 0.068 | 0.93 ± 0.049 | 0.919 ± 0.031 | 0.85 ± 0.099 | 0.805 ± 0.095 | 0.735 ± 0.1 | 0.68 ± 0.11 | 0.633 ± 0.063 | 0.6 ± 0.019 | 0.5521 ± 0.0025
